ChEMBL document CHEMBL1201862, “PubChem BioAssay data set” (2004)
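1) Cells in 96-well plates. 2) Compound, 48 h, 5 concentrations. 3) Linear interpolation between surrounding doses. 4) Unreached endpoint = highest concentration. GI50 is the concentration that inhibits growth by half.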 Activity calls are given as the source filed them. No stated cut-off is given here; in the data, active = GI50 up to about 1.1 µM and inactive = higher.

Experiments:
Test in all cases: growth of human tumour cells (NCI), 48 h
[1] = test system: T47D
[2] = test system: NCI/ADR-RES
[3] = test system: M19-MEL
[4] = test system: DMS-273
[5] = test system: SNB-78
[6] = test system: XF498
[7] = test system: LXFL 529
[8] = test system: HOP-18

Row | SMILES | GI50 [1] | GI50 [2] | further results
1 | O=[N+]([O-])c1cc(C(F)(F)F)ccc1S(=O)(=O)N[C@@H]1CCCC[C@H]1NS(=O)(=O)c1ccc(C(F)(F)F)cc1[N+](=O)[O-] | 3.13 µM (inactive) | 2.51 µM (inactive) | –
2 | COC(=O)N/N=C(/CC1(O)C(=O)Nc2ccc([N+](=O)[O-])cc21)c1ccccc1 (configuration not stated) | 48.8 µM (inactive) | 21.8 µM (inactive) | GI50 [3]: 66.5 µM (inactive); GI50 [4]: 67.8 µM (inactive); GI50 [5]: 20.9 µM (inactive); GI50 [6]: 19.4 µM (inactive); GI50 [7]: 36.8 µM (inactive)
3 | N#CCCN(CCCN(CCCN(C(=O)Nc1ccccc1)c1ccccc1)C(=O)Nc1ccccc1)C(=O)Nc1ccccc1 | > 8.75 µM (inactive) | > 8.75 µM (inactive) | –
4 | c1ccc(-c2sc(-c3ccccc3)c3c2C(c2ccccc2)c2c(-c4ccccc4)sc(-c4ccccc4)c2C3c2ccccc2)cc1 (configuration not stated) | – | – | GI50 [3]: > 100 µM (inactive); GI50 [4]: > 100 µM (inactive); GI50 [5]: > 100 µM (inactive); GI50 [7]: > 100 µM (inactive)
5 | Cc1ccc2nc(N)[nH]c(=O)c2c1Sc1ccncc1 | – | – | GI50 [8]: > 100 µM (inactive); GI50 [3]: > 76 µM (inactive); GI50 [4]: 37.2 µM (inactive); GI50 [5]: > 100 µM (inactive); GI50 [6]: 22.8 µM (inactive); GI50 [7]: > 59.7 µM (inactive)
6 | NC(=O)NNC/C(Cl)=C(\Cl)C(=O)O | – | – | GI50 [8]: > 100 µM (inactive); GI50 [3]: > 100 µM (inactive); GI50 [4]: > 100 µM (inactive); GI50 [5]: > 100 µM (inactive); GI50 [6]: > 100 µM (inactive); GI50 [7]: > 100 µM (inactive)
7 | Nc1nc2c(=O)c3ccccc3sc2s1 | 69 µM (inactive) | 25.9 µM (inactive) | –
8 | COC12COC(=O)C1C(c1ccc3c(c1)OCO3)c1cc3c(cc1O2)OCO3 (configuration not stated) | 24.2 µM (inactive) | 5.3 µM (inactive) | –
9 | COC(=O)[C@H](Cc1ccccc1)NC(=O)N1CCCN(C(=O)N[C@@H](Cc2ccccc2)C(=O)OC)CCCN(C(=O)N[C@@H](Cc2ccccc2)C(=O)OC)CCC1 | 17.3 µM (inactive) | 30.8 µM (inactive) | –
10 | Cn1cc[n+](-c2cc(=O)n(C)c(=O)[n-]2)c1 | 92.3 µM (inactive) | > 100 µM (inactive) | –
11 | CCOC(=O)c1ccc(C(=O)/C(C(C)=O)=C2\CCCN2C)n1C | 15.8 µM (inactive) | 83.8 µM (inactive) | –
12 | C/C(=N\NC(=O)c1ccccc1O)c1c(O)cc(C)oc1=O | – | – | GI50 [8]: 27.2 µM (inactive); GI50 [3]: 83.4 µM (inactive); GI50 [5]: > 100 µM (inactive); GI50 [7]: 85.5 µM (inactive)
13 | Cc1cccc(C)c1N1C(=O)C(=O)C(c2nc3ccccc3s2)/C(=N/NC(=O)NN)C1=O (configuration not stated) | – | – | GI50 [8]: > 100 µM (inactive); GI50 [3]: > 100 µM (inactive); GI50 [4]: > 100 µM (inactive); GI50 [5]: > 100 µM (inactive); GI50 [6]: > 100 µM (inactive); GI50 [7]: > 100 µM (inactive)
14 | O=C1C([N-]S(=O)(=O)c2ccccc2)=C([n+]2ccc(Cc3ccccc3)cc2)C(=O)c2ccccc21 | 3.46 µM (inactive) | 2.83 µM (inactive) | –
15 | Cc1nn(-c2ccccc2)c(C)c1/C=N/N=C1\S/C(=C\c2ccc(Cl)cc2)C(=O)N1c1ccccc1 | > 100 µM (inactive) | 17.2 µM (inactive) | –
16 | CC1(C)[C@@H]2CC[C@]1(C)[C@H](OC(=O)/C=C/c1ccccc1)C2 | 15.9 µM (inactive) | 18.9 µM (inactive) | –

Row | SMILES | GI50 [1] | GI50 [2] | further results
17 | O=NN1CCN=C1c1ccc([N+](=O)[O-])cc1 | – | – | GI50 [3]: > 100 µM (inactive); GI50 [4]: > 100 µM (inactive); GI50 [5]: > 100 µM (inactive); GI50 [6]: > 100 µM (inactive); GI50 [7]: > 100 µM (inactive)
18 | C/C(=N\Nc1nc2ccccc2[nH]1)c1cccc[n+]1[O-] | > 100 µM (inactive) | 38.5 µM (inactive) | –
19 | CC(C)(C)[Si](C)(C)OCC1OC(n2cnc3c(NC(=O)c4ccccc4)ncnc32)CC1O (configuration not stated) | 30.2 µM (inactive) | 38.9 µM (inactive) | –
20 | CNC(=O)c1ccc(C(=O)NCCCCCN(O)C(=O)CCC(=O)NCCCCCN(O)C(=O)CCC(=O)NCCCCCN(O)C(C)=O)c(O)c1O | – | 41.6 µM (inactive) | –
21 | FC(F)(Sc1ccccc1)c1nc2ccccc2o1 | > 100 µM (inactive) | 18.6 µM (inactive) | –
22 | O=C1C2=Cc3ccccc3OC2(O)Oc2cc(O)cc(O)c21 (configuration not stated) | > 100 µM (inactive) | > 100 µM (inactive) | –
23 | COc1ccc(/N=N/c2c(C)c(C#N)c(=S)n(C3OC(CO)C(O)C(O)C3O)c2C)cc1 (configuration not stated) | 28.6 µM (inactive) | > 100 µM (inactive) | –
24 | COc1c2cc([N+](=O)[O-])cc1CN(C(=O)C(F)(F)F)CCOCCN(C(=O)C(F)(F)F)C2 | > 100 µM (inactive) | – | –
25 | COc1ccccc1C1(c2c(OC)c(=O)c2=O)SCCCS1 | 73.8 µM (inactive) | 73.6 µM (inactive) | –
26 | CSC1=N/C(=C\c2ccco2)C(=O)N1CN1CCCCC1 | – | > 100 µM (inactive) | –
27 | O=C(O)C1(C(O)c2ccccc2)SCCCS1 (configuration not stated) | > 10 µM (inactive) | – | –
28 | O=C(NNC(=O)c1cc(/C=C/c2cccc([N+](=O)[O-])c2)nc(S)n1)Nc1ccc(Cl)cc1 | – | – | GI50 [8]: > 100 µM (inactive); GI50 [3]: 69 µM (inactive); GI50 [4]: > 100 µM (inactive); GI50 [5]: > 100 µM (inactive); GI50 [6]: 28.6 µM (inactive); GI50 [7]: 42.3 µM (inactive)
29 | CCOC(OCC)N1C(=O)C2(C(OCC)OCC)CC3C(OC(=O)N3N)c3cccc1c32 (configuration not stated) | > 100 µM (inactive) | > 100 µM (inactive) | –
30 | C#C[C@]1(O)CC[C@H]2[C@@H]3CCC4=C/C(=N/NC(=O)c5cccc6c(=O)c7ccccc7[nH]c56)CCC4[C@H]3CC[C@@]21C (some centres not stated) | 30.8 µM (inactive) | 55.5 µM (inactive) | –
31 | CCCC(=O)C1=C(O)C(Cc2c(O)c(C)c(O)c(C(=O)CCC)c2O)=C(O)C(C)(C)C1=O | 49.2 µM (inactive) | – | –
32 | N=C(N)N/N=C/c1c(Cl)nc2sccn12 | 26.5 µM (inactive) | 55.2 µM (inactive) | –
